Here are results for one molecule from patent US6939561B2, “Methods and compositions for polyene antibiotics with reduced toxicity” (Wisconsin Alumni Research Foundation, priority 2001, dated 2005).

The test system of one data set is human red blood cells. In words: Hemolytic activity of AmB toward human red blood cells. It is filed as cell-based. To be noted: human RBCs, 37° C., 30 min. The protocol: Human blood was collected and centrifuged (2000 rpm). The supernatant and buffy coat were pipetted off and the red blood cells (RBCs) were diluted with an isotonic phosphate buffer, pH 7.4. The proper dilution factor was estimated from the UV/VIS absorbance of hemoglobin at 576 nm in the supernatant after RBCs were lysed by 20 μg/ml of AmB. A properly diluted sample of RBCs gives an absorbance of 0.4-0.5. Solutions of diluted RBCs (2.5 ml) with varied levels of AmB in different samples were incubated at 37° C. for 30 min. Samples were then placed in ice to stop hemolysis. The unlysed RBCs were removed by centrifugation at 14,000 rpm (about 7000×g) for 20 sec. The supernatant was collected and analyzed for hemoglobin by UV/VIS spectroscopy at 576 nm. The percent of hemolyzed RBCs was determined using this equation: % hemolysis=100(Abs−Abso)/(Abs100−Abso), where Abs, Abso and Abs100 are the absorbance for the sample, control with no AmB and control in the presence of 20 μg/ml AmB, respectively.

A further data set has as its system Aspergillus fumigatus. In words: Minimal inhibitory concentration (MIC) of AmB, microwell dilution. It is filed as cell-based. To be noted: 35° C., 24 hr. How it is done:
(§1) AmB in PEO-b-PHSA micelles was dissolved in isotonic sodium chloride solution giving an AmB level of 200 μg/ml. AmB was dissolved in DMSO and diluted further with the isotonic sodium chloride solution to give the same concentration. The level of DMSO in the final solution was <1% v/v. Samples of PEO-b-PHSA micelles in sodium chloride solution were also used as controls. Solutions of 20 μl from these samples were diluted with the culture medium (RPMI 1640) (80 μl) in the first microwell. The next 11 microwells had serial two-fold diluted solutions. To each microwell, 100 μl of the inoculum containing 5×10^3 CFU/ml of fungal pathogen (Candida albicans, Aspergillus fumigatus or Cryptococcus neoformans) in culture medium was added, giving a total volume of 200 μl per well. Microwell containers were incubated at 35° C. for 24 hr. Organism and medium controls were performed simultaneously to check the growth of organisms and sterility of culture medium, respectively. […] All tests were repeated three times.

The subject of another data set is Candida albicans. Described as above. Type of data set: cell-based. Conditions: 35° C., 24 hr. How it is done: as §1
The next data set has as its system Cryptococcus neoformans. Described as above. To be noted: 35° C., 24 hr. It is filed as cell-based. The protocol:
as §1

Data set [1] in a line: UV/VIS spectroscopy, I/IV ratio (self-aggregation state of AmB). It is filed as physicochemical. Conditions: intensity at 348 nm to 409 nm, 4 μg/ml AmB, PBS pH 7.4. The protocol: Freeze-dried samples of AmB in PEO-b-PHSA micelles with 11 and 70% stearate substitution were dissolved in PBS, pH=7.4, at 4 μg/ml of AmB. DMSO was used to solubilize AmB in PBS, pH=7.4, at a similar concentration. The level of DMSO in the final sample was <1% (v/v). The UV/VIS spectra of AmB in different samples were recorded from 300 nm to 450 nm.

Turning to `C[C@@H]1[C@H](O)[C@@H](C)/C=C/C=C/C=C/C=C/C=C/C=C/C=C/[C@H](O[C@@H]2O[C@H](C)[C@@H](O)[C@H](N)[C@@H]2O)C[C@@H]2O[C@](O)(C[C@@H](O)C[C@@H](O)[C@H](O)CC[C@@H](O)C[C@@H](O)CC(=O)O[C@H]1C)C[C@H](O)[C@H]2C(=O)O` [AmB, Amphotericin B], the “AmB level causing 100% hemolysis” value with human red blood cells is “about 1 μg/ml”. Also, the “MIC, AmB level inhibiting growth of A. fumigatus” value in the data set with Aspergillus fumigatus worked out at 0.45 µg/mL. The “MIC, AmB level inhibiting growth of C. albicans” value with Candida albicans is 0.3 µg/mL. In addition, in the data set with Cryptococcus neoformans, the “MIC, AmB level inhibiting growth of C. neoformans” value came to 0.3 µg/mL. In data set [1], the I/IV ratio result is “about 1.2”.
